# Data taken from PubChem BioAssay AID624026 (Broad Institute, 2012).
# Values joined by “and” are separate entries in the source; they are usually repeats but may differ in a detail not shown here. Equal values may be shown once. Active and inactive are the calls of the source.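 Rule for the calls: active = compounds reducing cell viability with a fitted AC50 at or below twice their top valid dose; inconclusive = flat curve between -70% and -30%, or an unreliable fit; inactive = the rest.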
# Columns and labels:
# [1] = cell viability loss, ATP luminescence – CellTiter-Glo, 24 h, powder samples, set 7, cytotoxicity control for SR-BI HDL uptake inhibitor project, dose response (AID 624026); settings: ldlA[mSR-BI] CHO cells viability, CellTiter-Glo ATP, 24 h; at 35 µM (top of the series)
# [2] = system: ldlA[mSR-BI] CHO cells viability, CellTiter-Glo ATP, 24 h; test: as above
Structure (SMILES),"activity change, negative = cytotoxicity [1]",AC50 [2]
COc1ccc2c(c1)CC(C1(O)C(=O)N(C)c3ccccc31)C2=O (configuration not stated),-4.38% (inactive),
C[C@@H]1CN([C@H](C)CO)C(=O)c2cc(NC(=O)Cc3cn(C)c4ccccc34)ccc2O[C@H]1CN(C)S(=O)(=O)c1ccc(F)cc1,12.8% (inactive),
CC(C)NC(=O)Nc1ccc2c(c1)C(=O)N([C@H](C)CO[Si](C)(C)C(C)(C)C)C[C@@H](C)[C@H](CN(C)S(=O)(=O)c1ccc(Cl)cc1)O2,2% (inactive),
CC(C)NC(=O)Nc1ccc2c(c1)CC(=O)N([C@H](C)CO)C[C@@H](C)[C@H](CN(C)S(=O)(=O)c1ccc(Cl)cc1)O2,8.33% (inactive),
CC(C)NC(=O)Nc1ccc2c(c1)C(=O)N([C@@H](C)CO)C[C@H](C)[C@H](CN(C)S(=O)(=O)c1ccc(Cl)cc1)O2,6.98% (inactive),
CC(C)NC(=O)Nc1ccc2c(c1)C(=O)N([C@H](C)CO)C[C@@H](C)[C@@H](CN(C)S(=O)(=O)c1ccc(Cl)cc1)O2,4.21% (inactive),
CC(C)NC(=O)Nc1ccc2c(c1)C(=O)N([C@@H](C)CO)C[C@@H](C)[C@H](CN(C)S(=O)(=O)c1ccc(Cl)cc1)O2,0.1% (inactive),
CC(C)NC(=O)Nc1ccc2c(c1)C(=O)N([C@H](C)CO)C[C@@H](C)[C@H](CN(C)S(=O)(=O)c1ccc(Cl)cc1)O2,10.4% (inactive) and 2.32% (inactive),> 70 µM (inactive)
Cc1noc(C)c1S(=O)(=O)Nc1ccc2c(c1)C(=O)N([C@H](C)CO)C[C@@H](C)[C@H](CN(C)S(=O)(=O)c1ccc(Cl)cc1)O2,2.07% (inactive),
CNC[C@@H]1Oc2ccc(NC(=O)NC(C)C)cc2C(=O)N([C@H](C)CO[Si](C)(C)C(C)(C)C)C[C@H]1C,0.137% (inactive),
C[C@@H]1CN([C@H](C)CO)C(=O)c2cc(NC(=O)C3CCCCC3)ccc2O[C@H]1CN(C)S(=O)(=O)c1ccccc1Cl,2.46% (inactive),
C[C@@H]1CN([C@H](C)CO)C(=O)c2cc(NC(=O)Cc3cn(C)c4ccccc34)ccc2O[C@H]1CN(C)S(=O)(=O)c1ccc(Cl)cc1,-1.59% (inactive),
CC(C)NC(=O)Nc1ccc2c(c1)C(=O)N([C@H](C)CO)C[C@H](C)[C@H](CN(C)S(=O)(=O)c1ccc(Cl)cc1)O2,1.21% (inactive),
COCC(=O)N1CCc2cc(-c3csc(NC(=O)c4cc(OC)cc(OC)c4)n3)ccc21,3.29% (inactive),
C[C@@H]1CN([C@H](C)CO)C(=O)c2cc(NC(=O)C3CCCCC3)ccc2O[C@H]1CN(C)S(=O)(=O)c1cccc(Cl)c1,-12.5% (inactive),
C=CCOC(=O)N(C)C[C@@H]1Oc2ccc(NC(=O)NC(C)C)cc2C(=O)N([C@H](C)CO[Si](C)(C)C(C)(C)C)C[C@H]1C,,21.6 µM

Structure (SMILES),"activity change, negative = cytotoxicity [1]",AC50 [2]
O=C1C2C3C=CC(C3)C2C(=O)N1c1cccc(N2C(=O)C3C4C=CC(C4)C3C2=O)n1 (configuration not stated),-1.42% (inactive),
CC(C)CN(C(=O)COC(=O)C12CC3CC(CC(O)(C3)C1)C2)C1CCS(=O)(=O)C1 (configuration not stated),-5.18% (inactive),
C[C@@H]1CN([C@H](C)CO[Si](C)(C)C(C)(C)C)C(=O)c2cc(NC(=O)C3CCCCC3)ccc2O[C@H]1CN(C)C(=O)c1ccc(Cl)cc1,1.39% (inactive),
CC(C)NC(=O)Nc1cccc2c1O[C@@H](CN(C)S(=O)(=O)c1ccc(Cl)cc1)[C@H](C)CN([C@H](C)CO)C2=O,3.81% (inactive),
CC(C)NC(=O)Nc1ccc2c(c1)C(=O)N([C@@H](C)CO)C[C@@H](C)[C@@H](CN(C)S(=O)(=O)c1ccc(Cl)cc1)O2,12.2% (inactive),
CCOc1cc2c3c(c1)C1(C(=O)N3C(C)(C)CC2C)C(C#N)=C(N)N2C(=C1C#N)Nc1ccccc12 (configuration not stated),-18.2% (inactive),
Cc1ccc(OCc2cc(C(=O)N3CCCC(O)C3)no2)cn1 (configuration not stated),-3.58% (inactive),
O=C(O)CC(C(=O)Nc1cccc(C(F)(F)F)c1)C1CCCO1 (configuration not stated),1.15% (inactive),
C=CCOC(=O)N(C)C[C@@H]1Oc2ccc(NC(=O)OCC3c4ccccc4-c4ccccc43)cc2C(=O)N([C@H](C)CO)C[C@H]1C,,> 70 µM (inactive)
C[C@@H]1CN([C@H](C)CO)C(=O)c2cc(NC(=O)C3CCCCC3)ccc2O[C@H]1CN(C)S(=O)(=O)c1ccc(Cl)cc1,0.365% (inactive),
C[C@H](C(=O)NC1CCCC1)N(C(=O)Cn1nnc(-c2ccc3c(c2)OCO3)n1)C1CCCCC1,-3.33% (inactive),
COc1c(NC(=O)C(=O)c2ccc(OCCN3CCOCC3)c3ccccc23)cc(C(C)(C)C)cc1NS(C)(=O)=O,-29.9% (inactive),
C=CCOC(=O)N(C)C[C@@H]1Oc2ccc(N)cc2C(=O)N([C@H](C)CO[Si](C)(C)C(C)(C)C)C[C@H]1C,,> 70 µM (inactive)
C[C@@H]1CN([C@H](C)CO)C(=O)c2cc(NC(=O)C3CCOCC3)ccc2O[C@H]1CN(C)S(=O)(=O)c1ccc(Cl)cc1,-3.51% (inactive),
C[C@@H]1CN([C@H](C)CO)C(=O)c2cc(NC(=O)C3CCCCC3)ccc2O[C@H]1CN(C)C(=O)c1ccc(Cl)cc1,-8.49% (inactive),
